Laboratory results published in PMC5837613 (Toxicological Sciences, 2017).
Each block holds one molecule with its values, some of them ahead of it.

Experiments:
[1] = test system: hiPSC CM (iCell Cardiomyocytes); experiment: Cellular impedance; type: cell-based, human; conditions: 3 µM, 2 h exposure; for change in beat amplitude / change in beat rate: significant = >3*SD of vehicle
[2] = target: FAK (Homo sapiens, UniProt Q05397); experiment: KinomeScan competition binding assay, FAK
[3] = target: RPS6KB1 (Homo sapiens, UniProt P23443); experiment: KinomeScan competition binding assay, RPS6KB1
Sequence of RPS6KB1 (P23443 whole entry): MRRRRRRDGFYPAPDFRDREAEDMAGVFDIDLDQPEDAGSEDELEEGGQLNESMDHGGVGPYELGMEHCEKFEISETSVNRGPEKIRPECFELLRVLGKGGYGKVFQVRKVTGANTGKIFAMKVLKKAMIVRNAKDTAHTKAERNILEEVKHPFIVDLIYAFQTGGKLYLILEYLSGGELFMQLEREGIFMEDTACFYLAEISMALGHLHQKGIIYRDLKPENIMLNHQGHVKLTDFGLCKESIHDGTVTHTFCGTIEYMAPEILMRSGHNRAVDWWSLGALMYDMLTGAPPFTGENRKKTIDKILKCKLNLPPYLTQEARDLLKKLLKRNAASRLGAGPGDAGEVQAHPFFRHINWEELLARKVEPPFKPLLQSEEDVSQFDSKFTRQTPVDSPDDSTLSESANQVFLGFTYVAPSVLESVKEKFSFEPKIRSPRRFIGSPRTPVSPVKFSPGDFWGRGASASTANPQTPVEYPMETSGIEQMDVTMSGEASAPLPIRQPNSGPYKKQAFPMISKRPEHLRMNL

[4] = target: STK35 (Homo sapiens, UniProt Q8TDR2); experiment: KinomeScan competition binding assay, STK35
Sequence of STK35 (Q8TDR2 whole entry): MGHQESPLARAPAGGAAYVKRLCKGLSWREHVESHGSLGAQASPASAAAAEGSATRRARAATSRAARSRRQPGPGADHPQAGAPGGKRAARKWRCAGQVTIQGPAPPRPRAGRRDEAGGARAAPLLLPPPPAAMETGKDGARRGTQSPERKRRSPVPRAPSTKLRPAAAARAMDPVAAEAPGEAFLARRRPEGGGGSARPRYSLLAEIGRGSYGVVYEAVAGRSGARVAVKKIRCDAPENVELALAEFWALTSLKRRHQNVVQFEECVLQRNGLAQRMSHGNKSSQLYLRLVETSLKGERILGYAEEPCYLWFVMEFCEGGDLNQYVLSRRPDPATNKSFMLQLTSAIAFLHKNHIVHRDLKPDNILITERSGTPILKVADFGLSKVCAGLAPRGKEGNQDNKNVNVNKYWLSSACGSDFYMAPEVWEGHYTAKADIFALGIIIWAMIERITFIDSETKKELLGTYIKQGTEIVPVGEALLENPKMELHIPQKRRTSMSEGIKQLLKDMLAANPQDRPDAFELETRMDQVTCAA

[5] = human plasma, Cmax at steady state; ref 1-28 of Supplementary Text; cited from earlier work
[6] = test system: hiPSC CM (iCell Cardiomyocytes); experiment: Cellular ATP levels; type: cell-based, human; conditions: 3 µM, 24 h after compound addition

Sequence of FAK (Q05397 whole entry): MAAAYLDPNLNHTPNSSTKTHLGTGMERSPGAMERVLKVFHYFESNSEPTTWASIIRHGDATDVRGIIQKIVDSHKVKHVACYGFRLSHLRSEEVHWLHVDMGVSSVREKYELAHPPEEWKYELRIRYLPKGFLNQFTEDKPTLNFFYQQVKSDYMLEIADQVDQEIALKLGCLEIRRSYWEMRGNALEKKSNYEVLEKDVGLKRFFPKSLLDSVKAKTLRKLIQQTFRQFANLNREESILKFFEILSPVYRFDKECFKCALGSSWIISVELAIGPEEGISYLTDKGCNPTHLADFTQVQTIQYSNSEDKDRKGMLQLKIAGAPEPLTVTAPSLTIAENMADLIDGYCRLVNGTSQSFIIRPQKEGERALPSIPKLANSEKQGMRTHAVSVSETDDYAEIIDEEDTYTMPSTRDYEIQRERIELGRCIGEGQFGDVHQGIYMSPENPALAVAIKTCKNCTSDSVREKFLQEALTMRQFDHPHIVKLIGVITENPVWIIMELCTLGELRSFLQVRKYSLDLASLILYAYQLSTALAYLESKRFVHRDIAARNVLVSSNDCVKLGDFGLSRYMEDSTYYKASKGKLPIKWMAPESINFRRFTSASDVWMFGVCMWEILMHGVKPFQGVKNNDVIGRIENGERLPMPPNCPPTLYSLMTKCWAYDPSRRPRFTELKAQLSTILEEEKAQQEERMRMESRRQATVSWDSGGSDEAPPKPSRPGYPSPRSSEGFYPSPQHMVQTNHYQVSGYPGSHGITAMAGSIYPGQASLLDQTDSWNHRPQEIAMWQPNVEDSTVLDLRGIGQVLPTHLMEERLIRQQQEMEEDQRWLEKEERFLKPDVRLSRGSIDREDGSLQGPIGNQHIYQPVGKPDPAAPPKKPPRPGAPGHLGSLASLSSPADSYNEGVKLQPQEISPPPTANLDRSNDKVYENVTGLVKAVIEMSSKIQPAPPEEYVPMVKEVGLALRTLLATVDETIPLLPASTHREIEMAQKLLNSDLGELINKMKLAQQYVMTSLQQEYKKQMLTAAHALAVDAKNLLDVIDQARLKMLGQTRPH

Structure (SMILES): C[C@]12O[C@H](C[C@]1(O)CO)n1c3ccccc3c3c4c(c5c6ccccc6n2c5c31)CNC4=O [CEP-701]
- change in beat amplitude [1]: decreased amplitude
- change in beat rate [1]: increased beat rate

Structure (SMILES): COc1cc2nccc(Oc3ccc(NC(=O)C4(C(=O)Nc5ccc(F)cc5)CC4)cc3)c2cc1OC [Cabozantinib]
- IC50 [2]: 2.8 µM
- IC50 [3]: 13.2 µM
- Cmaxss [5]: 2800 nM
- IC50 [4]: 5.7 µM

Structure (SMILES): OCCn1cc(-c2ccc3c(c2)CC/C3=N\O)c(-c2ccncc2)n1 [GDC-0879]
- effect on CM beating (beat rate or amplitude) [1]: induced CM beating effects
- change in beat amplitude [1]: independent of a change in amplitude
- change in beat rate [1]: increased beat rate

Structure (SMILES): CO[C@@H]1[C@H](N(C)C(=O)c2ccccc2)C[C@H]2O[C@]1(C)n1c3ccccc3c3c4c(c5c6ccccc6n2c5c31)C(=O)NC4 [PKC-412]
- change in beat amplitude [1]: decreased amplitude
- change in beat rate [1]: increased beat rate

Structure (SMILES): Cc1[nH]c(/C=C2\C(=O)Nc3ccc(F)cc32)c(C)c1C(=O)NC[C@H](O)CN1CCOCC1 [SU14813]
- effect on CM beating (beat rate or amplitude) [1]: no effect on CM beating

Structure (SMILES): CNC(=O)c1cc(COc2nnc(Nc3ccc(Cl)cc3)c3ccoc23)ccn1 [Telatinib]
- IC50 [2]: > 32 µM
- IC50 [3]: > 32 µM
- Cmaxss [5]: 2000 to 3600 nM
- IC50 [4]: > 32 µM

Structure (SMILES): CN[C@@H]1C[C@H]2O[C@@](C)([C@@H]1OC)n1c3ccccc3c3c4c(c5c6ccccc6n2c5c31)C(=O)NC4 [staurosporine]
- cytotoxicity (decreased cellular ATP levels and decreased cell index) [6]: induce cell death

Second part, led by results:

- change in beat amplitude [1]: increased amplitude
- change in beat rate [1]: independent of a change in beat rate
Structure (SMILES): Cc1[nH]nc2ccc(-c3cncc(OC[C@@H](N)Cc4ccccc4)c3)cc12 [A-674563]

- IC50 [2]: 0.1 µM
- IC50 [3]: 3 µM
- IC50 [4]: > 3.2 µM
Structure (SMILES): NC(=O)Nc1cc(-c2cccc(F)c2)sc1C(=O)N[C@H]1CCCNC1 [AZD7762]

- effect on CM beating (beat rate or amplitude) [1]: induced CM beating effects
Structure (SMILES): Cc1cc2c(F)c(Oc3ncnn4cc(OC[C@@H](C)O)c(C)c34)ccc2[nH]1 [BMS-540215]

- IC50 [4]: > 10 µM
Structure (SMILES): Cc1cc(Nc2cc(N3CCN(C)CC3)nc(/C=C/c3ccccc3)n2)n[nH]1 [ENMD-2076]
- Cmaxss [5]: 600 to 1500 nM

- change in beat amplitude [1]: increased amplitude
- change in beat rate [1]: independent of a change in beat rate
Structure (SMILES): CCn1c(-c2nonc2N)nc2c(C#CC(C)(C)O)ncc(OC[C@H]3CCCNC3)c21 [GSK-690693]

- effect on CM beating (beat rate or amplitude) [1]: no effect on CM beating
Structure (SMILES): Cc1cnc(Nc2ccc(OCCN3CCCC3)cc2)nc1Nc1cccc(S(=O)(=O)NC(C)(C)C)c1 [TG-101348]

- IC50 [2]: 3.1 µM
- IC50 [3]: > 3.2 µM
- IC50 [4]: > 3.2 µM
Structure (SMILES): COc1cc2nccc(Oc3ccc(NC(=O)Nc4cc(C)on4)c(Cl)c3)c2cc1OC [Tivozanib]
- Cmaxss [5]: 200 nM
